As usually defined, the MIC is the smallest concentration in the dilution series that meets the test's criterion for growth inhibition.

Our source for the MIC values is DBAASP.

≈ marks a conversion by molar mass, not a printed value.

Among the test systems are Escherichia coli UB1005; Staphylococcus aureus; Streptococcus agalactiae; Escherichia coli 078; Escherichia coli K88; Escherichia coli K99.
Experiment in all cases: ≥ marks a high value that may be exact or a test limit, other limits are often not marked, values filed in µg/mL are converted to µM
In test [1] the test system is Candida albicans ATCC 10231.
Test [2] concerns Cryptococcus neoformans ATCC 32045.
Test [3] deals with Escherichia coli ATCC 2592.
The test system of test [4] is Pseudomonas aeruginosa ATCC 10145.
The test system of test [5] is Staphylococcus aureus ATCC 33591.
Test [6] concerns Enterococcus faecalis ATCC 29212.
The subject of test [7] is Escherichia coli ATCC 25922.
Test [8] relates to Salmonella enterica subsp. enterica serovar Choleraesuis CVCC 503.
Test [9] relates to Salmonella enterica subsp. enterica serovar Pullorum C79-13.
Test [10] deals with Salmonella enterica subsp. enterica serovar Typhimurium ATCC 14028.
Test [11] relates to Salmonella enterica subsp. enterica serovar Typhimurium C77-31.
In test [12] the test system is Staphylococcus aureus ATCC 29213.
Test [13] has as its system Staphylococcus aureus ATCC 43300.
Test [14] concerns Staphylococcus epidermidis ATCC 12228.
The test system of test [15] is Candida parapsilosis CGMCC 2.3989.
Test [16] has as its system Candida tropicalis CGMCC 2.1975.
Test [17] concerns Pseudomonas aeruginosa ATCC 27853.
The subject of test [18] is Salmonella enterica subsp. enterica serovar Pullorum ATCC 7913.
For test [19], the system named is Staphylococcus aureus ATCC 25923.
The test system of test [20] is Bacillus subtilis KCTC 1998.
Test [21] concerns Candida albicans KCTC 7270.
For test [22], the system named is Escherichia coli CCARM 1229.
Test [23] has as its system Escherichia coli CCARM 1238.
Test [24] concerns Listeria monocytogenes KCTC 3710.
Test [25] deals with Pseudomonas aeruginosa 4007.
Test [26] relates to Pseudomonas aeruginosa 4891.
The test system of test [27] is Salmonella typhimurium KCTC 1926.
Test [28] relates to Staphylococcus aureus CCARM 3090.
The subject of test [29] is Staphylococcus aureus CCARM 3518.
The test system of test [30] is Trichosporon beigelii KCTC 7707.

Regarding `C[C@H](NC(=O)[C@H](Cc1ccccc1)NC(=O)[C@H](CCCCN)NC(=O)[C@H](CCCCN)NC(=O)[C@H](C)NC(=O)[C@H](Cc1ccccc1)NC(=O)[C@H](CCCCN)NC(=O)[C@H](CCCCN)NC(=O)[C@H](C)NC(=O)[C@H](Cc1ccccc1)NC(=O)[C@@H](N)CCCCN)C(=O)N[C@@H](CCCCN)C(=O)O` [KFAKKFAKKFAK], the minimum inhibitory concentration (MIC) in test [1] was 260 µM (≈ 374 µg/mL); in [2], at least 123 µM; in [3], at least 173 µM; in test [4], at least 347 µM; in test [5], at least 347 µM.

As to `CC[C@H](C)[C@H](N)C(=O)N[C@@H](CS)C(=O)N[C@@H](CCCN=C(N)N)C(=O)N[C@@H](CCCCN)C(=O)N1CCC[C@H]1C(=O)N[C@H](C(=O)N[C@H](C(=O)N[C@@H](CS)C(=O)N[C@@H](CCCN=C(N)N)C(=O)N[C@@H](CCCCN)C(=O)N1CCC[C@H]1C(=O)N[C@H](C(N)=O)[C@@H](C)CC)[C@@H](C)CC)[C@@H](C)CC` [ICRKPIICRKPI], the MIC in [6] is over 64 µM; in test [7], 64 µM (≈ 92.1 µg/mL); with Escherichia coli UB1005, at least 64 µM; in test [8], at least 64 µM; in test [9] it was at least 64 µM; in test [10], over 64 µM. Besides, the MIC is at least 64 µM in [11]; over 64 µM in [12]; over 64 µM in test [13]; over 64 µM in the test with Staphylococcus aureus; over 64 µM in test [14]; at least 64 µM with Streptococcus agalactiae.

Turning to `CC[C@H](C)[C@H](NC(=O)[C@H](CCCN=C(N)N)NC(=O)[C@H](C)NC(=O)[C@H](C)N)C(=O)N[C@H](C(=O)N[C@@H](CC(C)C)C(=O)N[C@@H](CCCN=C(N)N)C(=O)N[C@@H](Cc1c[nH]c2ccccc12)C(=O)N[C@@H](CCCN=C(N)N)C(=O)N[C@@H](Cc1ccccc1)C(=O)N[C@@H](CCCN=C(N)N)C(N)=O)[C@@H](C)CC` [AARIILRWRFR], the MIC was 4 µM (≈ 5.83 µg/mL) in test [15]; 4 µM (≈ 5.83 µg/mL) in test [16]; 2 µM (≈ 2.91 µg/mL) in the test with Escherichia coli 078; 2 µM (≈ 2.91 µg/mL) in the test with Escherichia coli K88; 2 µM (≈ 2.91 µg/mL) with Escherichia coli K99; 4 µM (≈ 5.83 µg/mL) against Escherichia coli UB1005. The MIC in test [17] was 4 µM (≈ 5.83 µg/mL); in [18] it was 2 µM (≈ 2.91 µg/mL); in test [10], 2 µM (≈ 2.91 µg/mL); in test [11], 4 µM (≈ 5.83 µg/mL); in test [19], 2 µM (≈ 2.91 µg/mL); in [13] it was 1 µM (≈ 1.46 µg/mL). This compound came in with a minimum inhibitory concentration (MIC) in test [14] of 1 µM (≈ 1.46 µg/mL).

As to `CC[C@H](C)[C@H](NC(=O)[C@H](CC(C)C)NC(=O)[C@H](CCCCN)NC(=O)[C@@H](NC(=O)[C@H](C)NC(=O)[C@H](CCC(=O)O)NC(=O)[C@H](Cc1cnc[nH]1)NC(=O)[C@@H](NC(=O)CNC(=O)[C@H](CCC(N)=O)NC(=O)[C@H](Cc1ccccc1)NC(=O)[C@@H](NC(=O)[C@H](CCCCN)NC(=O)[C@H](CCCCN)NC(=O)[C@H](CC(C)C)NC(=O)[C@H](C)NC(=O)[C@H](CC(N)=O)NC(=O)[C@@H](N)CC(C)C)C(C)C)[C@@H](C)CC)[C@@H](C)CC)C(N)=O` [LNALKKVFQGIHEAIKLI], the minimal inhibitory concentration (MIC) in test [20] amounted to 8 µM (≈ 16.3 µg/mL); in test [21] it was 16 µM (≈ 32.6 µg/mL); in test [7] it was 4 µM (≈ 8.14 µg/mL); in test [22] it was 4 µM (≈ 8.14 µg/mL); in test [23], 4 µM (≈ 8.14 µg/mL); in [24] it was 8 µM (≈ 16.3 µg/mL). The MIC in test [25] is 4 µM (≈ 8.14 µg/mL); in [26] it was 8 µM (≈ 16.3 µg/mL); in test [17] it was 4 µM (≈ 8.14 µg/mL); in test [27], 4 µM (≈ 8.14 µg/mL); in test [19] it was 8 µM (≈ 16.3 µg/mL); in test [28] it was 8 µM (≈ 16.3 µg/mL). Besides, the MIC in test [29] stood at 8 µM (≈ 16.3 µg/mL); in [30] it was 16 µM (≈ 32.6 µg/mL).
